Reference: publication PMC3527734, “Peripheral injections of melanin-concentrating hormone receptor 1 antagonist S38151 decrease food intake and body weight in rodent obesity models” (Frontiers in Endocrinology, 2012)
Where no end group is shown, it is not given here.

Key:
Zucker fa/fa rats [1] = conditions: cyclophosphamide 100 mg/kg i.p., S38151 20 nmol/kg (28 μg/kg) i.c.v., n = 8
Experimental: These experiments were performed with modifications to previously described methods (Madden et al., [1999]). Rats were individually housed in wire-bottomed plastic cages with free access to both food pellets (6 mm diameter A03 UAR) and kaolin powder. The food pellets were presented in a small porcelain bowl on the floor of the cage. The kaolin powder was presented in a metal feeding dish attached to the inside of the cage. After a 2-week habituation period to these conditions, the animals were randomized into five treatment groups based on the quantity of food eaten during the stabilization period. In addition, those rats that consistently spilled the kaolin powder were eliminated from the study. One day after randomization, the animals were injected just before the beginning of the dark phase with either cyclophosphamide (100 mg/kg, i.p.), or S38151 [20 nmol/kg (28 μg/kg) i.c.v.] or vehicle [(artificial CSF) i.c.v.]. After injection, the quantity of kaolin and food ingested during the following 24-h period was determined. Food or kaolin spilled by the animals was collected at the end of the experiment, and total food and kaolin intake measurements were corrected for this loss.
Figure 5 The effects of S38151 on conditioned taste aversion and pica in Zucker fa/fa rats. (A) In the conditioned taste aversion test, after a period of habituation of the animals to the experimental protocol, Zucker fa/fa rats were presented with 0.2% saccharine for 20 min after drinking water was removed from their cages for 18 h (test day 0). Animals were then injected (i.p.) with vehicle or lithium chloride, or with S38151 (20 nmol/kg, i.c.v). On test days 4, 7, 11, and 14, rats were presented with 0.2% saccharine, and the quantity consumed during a 20-min period was determined. Results are expressed as mean ± SEM (n = 10–11 rats per group). […] (B) In the pica test, Zucker fa/fa rats were injected (i.c.v.) with 20 nmol/kg S38151, or an equivalent volume of artificial cerebrospinal fluid vehicle. Food and kaolin intake during the following 24-h period were each measured. Results are expressed as mean ± SEM (n = 8 rats per group).

Zucker fa/fa rats [2] = assay: conditioned taste aversion; assay type: in vivo, rat; conditions: test days 4, 7, 11, 14 versus control; lithium chloride 75 mg/kg i.p.; S38151 20 nmol/kg i.c.v.; n = 10-11
Wistar rats = assay: NEI-MCH-induced food intake after acute i.c.v. injection; assay type: in vivo, rat; conditions: NEI-MCH alone or any combination of NEI-MCH and S38151, i.c.v.
Source text: Wistar and Zucker fa/fa rats were anesthetized with Forène (Abbott Laboratories, Queenborough, UK), and a stainless steel guide cannula (Plastic Products Co, Roanoke, Va, USA) was stereotaxically implanted into the right lateral ventricle at the following coordinates relative to the bregma: AP −0.8 mm, L = −1.2 mm, and V = −3.5 mm. After a 7-day recovery period, during which the animals were handled each day to minimize non-specific stress, they were lightly anesthetized with Forène. Human/mouse/rat MCH (1 μg in a volume of 2.5 μ L, Bachem, Voisins-le-Bretonneux, France) or an equivalent volume of artificial cerebrospinal fluid (CSF) was then injected through the intraventricular cannula. Immediately after injection, the animals quickly recovered and were returned to their home cages. Only those animals responding within 2 h with a robust increase in food intake, indicating correct cannula placement, were used in the experiments described below. Two days after MCH injection, the rats were randomly assigned to different groups and studied in one of the following protocols.
Wistar rats were habituated for at least 2 weeks before experiment to a diet of food pellets (6 mm diameter) of the following composition: 67.5% food flour, 26.5% sucrose, 5% gum tragacanth, and 1.25% magnesium stearate (A03 UAR, Orge, France). The food pellets were present in a metal food hopper attached to the inside of each cage. At 09:00 on the day of study, the animals were lightly anesthetized with Forene® (Abbott, France). Thereafter, rats were injected intra-cerebroventricular (i.c.v.) with vehicle (artificial CSF) or with S38151 [0.5, 5, 10, 20, 30, or 50 nmol/kg ([…], 14, 28, 42, or 70 μg/kg, respectively)] in a volume of 2.5 μL, 20 min prior to the injection of human/rat NEI-MCH [5 nmol/kg (18.7 μg/kg) in a volume of 2.5 μL].
Food intake was measured at different times after peptide injection. Food spillage was carefully quantified during each time period, and intake measurements were corrected for this loss. At the end of the experiments, the animals were euthanized and the positions of the cannulae were assessed by the injection of 100 μ L Evans blue dye (2 mg/mL) followed by the visual examination of brain slices. Only data obtained from animals with correctly positioned cannulae were included in the final data analysis.
Figure 3 The effect of S38151 on NEI-MCH-induced food intake in Wistar rats after acute central administration. Satiated rats were injected (i.c.v.) at the beginning of the light phase with 5 μg NEI-MCH, 5 μg NEI-MCH + differing doses of S38151 (0.5–50 nmol/kg), or an equivalent volume of artificial cereblospinal fluid vehicle (5 μL). Cumulative food intake was measured at 1, 2, 4, 6, and 24 h post-injection.

C57BL/6J mice = assay: daily i.c.v. MCH, food intake and body weight in lean mice; assay type: in vivo, mouse; conditions: n = 10
Experimental: (§1) For the MCH daily repeated i.c.v. injection studies, 13-week-old female C57BL/6J and ob/ob mice were used (Harlan, Gannat, France).
(§2) Figure 7 The effect of repeated daily central administration of MCH to lean (C57BL/6J) and obese (ob/ob) mice. C57BL/6J (A and B) and ob/ob (C and D) mice were administered MCH (5 μg/mouse/day) or artificial cerebrospinal fluid vehicle through i.c.v. injections for 5 consecutive days. Results are expressed as mean ± SEM (n = 10 mice per group). […] TEXT PRINTED IN THE PICTURE: (A) MCH: Food Intake/24h (g), C57BL/6J: Δ = 1.3 g | (B) MCH: Δ Body Weight (g), C57BL/6J: Δ = 1.3 g | (C) MCH: Food Intake/24h (g), ob/ob: Δ = 3.2 g | (D) MCH: Δ Body Weight (g), ob/ob: Δ = 2.1 g DOUBTS OF THE COPYIST ABOUT THIS PICTURE: The Δ values are printed beside the curve pairs with no substance label; I assigned them to MCH, reading them as the MCH versus Control difference.

ob/ob mice = assay: daily i.c.v. MCH, food intake and body weight in obese mice; assay type: in vivo; conditions: MCH 5 μg/mouse/day i.c.v. for 5 days, n = 10
Experimental: as §1, §2

O=P1(N(CCCl)CCCl)NCCCO1 (centres unmarked) [Cyclophosphamide, cyclophosphamide, reference compound]
kaolin intake, 24 h, pica test (Zucker fa/fa rats [1]; vehicle 0.05 ± 0.01 g): significant increase | food intake, 24 h, pica test (Zucker fa/fa rats [1]; vehicle 27 ± 1 g): nearly complete suppression

[Cl-].[Li+] [lithium chloride, reference compound]
0.2% saccharine consumption (Zucker fa/fa rats [2]): significant reduction

NEI-MCH: stable precursor of melanin-concentrating hormone, human/rat NEI-MCH (EIGDEENSAKFPIGRRDFDMLRCMLGRVYRPCWQV; ends and bridges not checked; cysteine pairing not given here; UniProt P20382 131-165, looked up, fragment) [reference compound]
food intake during the entire 24-h period versus control group (Wistar rats): not significantly altered

Melanin-concentrating hormone [MCH]
Δ food intake vs. controls, day 5 (C57BL/6J mice; MCH 5 μg/mouse/day (100 nmol/kg/day) i.c.v. for 5 days): +1.3 g | Δ body weight vs. controls, day 5 (C57BL/6J mice; MCH 5 μg/mouse/day i.c.v. for 5 days): +1.3 g | Δ body weight vs. controls, after 5 days (ob/ob mice): +2.1 g | Δ food intake vs. controls, day 5 (ob/ob mice): +3.2 g
